Measured values published in patent US8143418B2, “Dimeric small molecule potentiators of apoptosis” (Board of Regents, The University of Texas System, priority 2004, dated 2012).

Tested on: Wap-ras tumors
Test: In vivo therapy in the WAP-RAS transgenic model
Parameters: species or system mice
Conditions: mimetic 20 mpk po every 12 hours; Paclitaxel 5 mpk ip
Protocol: Mimetic and Paclitaxel combination efficacy is also evaluated in the Wap-ras transgenic model.
Mimetics (20 mpk/dosing po) were dissolved in 20% hydroxyl-propyl-betacyclodexatrin (Vehicle I). 0.2 ml of mimetic solution is the oral dosing volume. Paclitaxel (5 mpk/dosing ip) was dissolved in a diluted ethanol/cremophor EL solution (vehicle II) and the i.p. dosing volume for paclitaxel was 0.1 ml.
The mice are weighed, randomized, and ear-marked on Day 0. Mimetic treatment and Vehicle I treatment began on Day 1 and continued every 12 hours until Day 21. Paclitaxel and Vehicle II treatments are started on Day 4 and continued daily on Day 5, 6, and 7.

Compound: CC(=O)O[C@H]1C(=O)[C@@]2(C)[C@H]([C@H](OC(=O)c3ccccc3)[C@]3(O)C[C@H](OC(=O)[C@H](O)[C@@H](NC(=O)c4ccccc4)c4ccccc4)C(C)=C1C3(C)C)[C@]1(OC(C)=O)CO[C@@H]1C[C@@H]2O [Paclitaxel]
- tumor response to treatment: do not respond
